Patent US20070036737A1, “PRODUCTS FOR TOPICAL A[…] LYSOPHO[…] FATTY ACIDS” (priority 2005, published 2007)

System: neuromuscular junction
Experiment: inhibition of the ex-vivo neuromuscular junction preparation (FIG. 1)
Parameters: species or system mouse
Details: single molecule alone
Text: The Applicants arrived at the results of the present invention in the course of their studies on the mechanism of action of snake presynaptic PLA2 neurotoxins. These presynaptic neurotoxins are major components of the venom of many poisonous snakes. Starting from: a) the established fact that these neurotoxins are endowed with a phospholipase A2 (PLA2) activity and that such activity leads to the production of LysoPLs and FAs following the hydrolysis of the fatty acid ester bond in position 2 of phospholipids (4); b) the fact that lysophospholipids and fatty acids in the appropriate membrane localization favor membrane fusion and inhibit membrane fission (5), and that c) such biological activities would lead to the depletion of synaptic vesicles from nerve terminals, as the one observed by electron microscopy upon exposure to the snake presynaptic PLA2 neurotoxins (6,7), the Applicants decided to test the effect of a mixture of lysophospholipids and fatty acids on the neuromuscular junction both in an ex-vivo preparation and in an in-vivo system.
Similar data were obtained with other lysoPLs varying with respect to R and/or with respect to R′. […] In other words, the two molecules act in a synergistic mode and this is at the very basis of the present patent. […]

SMILES	inhibition of the neuromuscular junction
CCCCCCCC/C=C\CCCCCCCC(=O)O [OA, oleic acid]	unable to elicit a substantial inhibition
CCCCCCCCCCCCCC(=O)OC[C@@H](O)COP(=O)([O-])OCC[N+](C)(C)C [lysoPC, 1-Myristoyl-sn-glycero-3-phosphocholine]	unable to elicit a substantial inhibition
